# Results from patent US20060142382A1, “Skin lightening composition” (priority 2002, published 2006).
# Test system: Kwl:A-1 brown guinea pigs
# Assay: Pigmentation inhibitory effect: UVB-induced pigmentation in brown guinea pigs, L value (lightness) by color-difference meter
# Assay type: in vivo, guinea pig
# Conditions: 10 ml/kg; for Final day of the test L value: L value (lightness) of the irradiated site on final day (14 days), oral, twice a day, UVB on day 0, 2nd and 4th days; for ΔL value: L value on the observation day minus L value before irradiation, final day (14 days), oral twice a day, larger ΔL values show higher effect
# Text: Ultraviolet ray (UVB) irradiation time was examined using two female 6-week-old Kwl:A-1 brown guinea pigs (SPF). That is, one of the guinea pigs was fixed on the abdominal position, and three 2 cm×2 cm square ultraviolet ray irradiating sites were arranged in bilateral symmetry with the dorsal midline between, thus six sites in total. By shading the body except for the ultraviolet ray irradiating sites, an ultraviolet ray (UVB) was irradiated from a distance of 40 cm using five SE lamps (wavelength 250 to 350 nm, F[…]-E, manufactured by TOSHIBA). […] Examination was made by using five female 7-week-old Kwl:A-1 brown guinea pigs (SPF) in one group. That is, each of the guinea pigs was fixed on the abdominal position using a fixation plate on the respective ultraviolet ray irradiating days (on the day of the commencement of sample administration and on the 2nd and 4th days thereafter). One 2 cm×2 cm square arranged on the left or right side with the guinea pig dorsal midline between was used as the ultraviolet ray irradiating site, and the body was shaded except for the ultraviolet ray irradiating site. Two guinea pigs in one group were irradiated with an ultraviolet ray (LTVB) for 11 minutes and 30 seconds, and three guinea pigs in one group, from a distance of 40 cm using five SE lamps (wavelength 250 to 350 nm, F[…]·E, manufactured by TOSHIBA). During the testing period (14 days), each test sample was orally administered twice a day. Each sample solution was administered at a dose of 10 ml/kg. In this case, the administration was carried out after the ultraviolet ray irradiation on each ultraviolet ray irradiation day, or after the judgment on each pigmentation judging day. Before the irradiation on the day of the commencement of test sample administration and on the final day of the test, a ΔL value (L value on the observation day-L value before irradiation) was calculated by measuring L value (lightness) of the irradiated site using a color-difference meter (CR-300, manufactured by MINOLTA CAMERA).
Structure (SMILES),Final day of the test L value,ΔL value
"NC[C@H]1CC[C@H](C(=O)O)CC1 [Sample (2), tranexamic acid]",58.30 ± 1.20,−3.76 ± 1.78
"N[C@@H](CS)C(=O)O [Sample (3), L-cysteine]",59.52 ± 3.10,−3.32 ± 1.70
"O=C1O[C@H]([C@@H](O)CO)C(O)=C1O [Sample (4), ascorbic acid]",57.35 ± 1.56,−4.76 ± 1.62
